From patent US10004683B2, “Antimicrobial formulations” (Common Pharma, Inc., priority 2015, dated 2018) come the findings set out here.

The series relates to New Zealand White Rabbits. As to the kind of experiment: Dermal irritation test, ISO 10993-10:2010. The settings on record: rabbits inspected at 1, 24, 48 and 72 hours; scale 0 to 0.4 Negligible, 0.5 to 1.9 Slight, 2 to 4.9 Moderate, 5 to 8 Severe. On the procedure: The test was performed according to ISO 10993-10:2010. The test sample was 2% Noveon and 2% boric acid in water. A placebo was also tested which was only 2% Noveon in water. All testing was under GLP conditions. A negative control was used which was 0.9% Sodium Chloride for Injection, USP and a positive control was used which was 20% W/V of sodium dodecyl sulfate (SDS) in water.
The test animals were inspected at times 1, 24, 48 and 72 hours.

`CCCCCCCCCCCCOS(=O)(=O)[O-].[Na+]` [positive control, sodium dodecyl sulfate]: the “dermal irritation observational rankings” value is recorded as 2-4.
